US4190675A (priority 1976, dated 1980)
≈ marks a conversion by molar mass, not a printed value. Entries after “also recorded” stand apart in the source; their conditions may differ. Like-named read-outs stand apart in the source and are kept apart here. Blank lines part the entries; values can stand above or below the compound they belong to.

Key:
rats [1] = experiment: Turpentine-induced pleuritis in rats (Hurley); type: in vivo; settings: for Exudate / Inhibition: P <0.01
Escherichia coli = experiment: Antibacterial activity (MIC), Escherichia coli; type: cell-based; settings: for MIC: read-out: Minimum Inhibiting Concentration (MIC); for antibacterial activity, grade (in words): Gram-negative germs
thrombocyte aggregation = experiment: Inhibition of thrombocyte aggregation from ADP in vitro (Born and Cross); type: cell-based; settings: for inhibition of thrombocyte aggregation compared with Fraction 2 and sobrerol (in words): 160 to 1,280 micrograms/ml, ADP, in vitro; for inhibition at 160 µg/mL: final concentration 160 μg/ml; for inhibition at 160 µg/mL / inhibition at 320 µg/mL / inhibition at 640 µg/mL / inhibition at 1280 µg/mL: average of repeated tests; for inhibition at 320 µg/mL: final concentration 320 μg/ml; for inhibition at 640 µg/mL: final concentration 640 μg/ml; for inhibition at 1280 µg/mL: final concentration 1280 μg/ml
rabbits [2] = experiment: Inhibition of histamine-induced bronchospasm by intravenous perfusion in rabbits; type: in vivo; settings: for Percentage of inhibition of the histamine-induced bronchospasm: histamine 100 micrograms/kg i.v., average of 4 animals
[3] = tested on: isolated Guinea-pig trachea; experiment: Relaxation of the isolated Guinea-pig trachea (Costantine); type: cell-based; settings: for activation at 125 µg/mL: 125 μg/ml; for activation at 125 µg/mL / activation at 500 µg/mL / activation at 2000 µg/mL: average of 4 preparations; for activation at 500 µg/mL: 500 μg/ml; for activation at 2000 µg/mL: 2,000 μg/ml; for relaxation of the smooth tracheal muscles, intensity compared with Fraction 2 and sobrerol (in words): in vitro, isolated Guinea-pig trachea; for bronchodilating activity, grade (in words): overall, in vitro and in vivo
Staphylococcus aureus = experiment: Antibacterial activity (MIC), Staphylococcus aureus; type: cell-based; settings: for antibacterial activity, grade (in words): Gram-positive germs / overall; for antibacterial activity compared with Fraction 2 and sobrerol (in words): Staphylococcus aureus and Escherichia coli; for MIC: read-out: Minimum Inhibiting Concentration (MIC)
rats [4] = experiment: Carrageenin-induced paw oedema in rats (Winter); type: in vivo, albino rats, COBS (Charles River) stock; settings: for % inhibition of plantar oedema: after 4 hours, 6 animals; for anti-inflammatory action, grade (in words): overall summary
red blood cells of rats = experiment: Protection of red blood cells from haemolysis induced by Tween 80, in vitro; type: cell-based; settings: for EC50: Rattus norvegicus, Erythrocyte, Tween 80
Excerpt: (fiducial limits 95% : 518.0-760.11).

[5] = Acute toxicity in rats (LD50, Litchfield and Wilcoxon); settings: rat, in vivo, iv, intravenously
dogs = experiment: Reduction of lung resistance in anesthetized dogs (Diamond); type: in vivo; settings: intravenous; for Percentage reduction of the Lung Resistance: average for 4 animals
[6] = tested on: isolated Guinea-pig trachea; experiment: Inhibition of histamine-induced contractions of the isolated Guinea-pig trachea; type: cell-based; settings: histamine 10^-5 M, average
Excerpt: In addition, at concentrations in the range of from 10^-3 M to 5.10^-3 M, it inhibits the histamine-induced contractions of the isolated Guinea-pig trachea (Histamine 10^-5 M, see TABLE 3).

in vivo = settings: mouse, LD50, mice, fiducial limits 95%
mice = settings: for Gleason classification: mice
[7] = Acute toxicity in rabbits (LD50, Litchfield and Wilcoxon); type: in vivo; settings: rabbit, in vivo, fiducial limits 95%
rabbits [8] = experiment: as above; type: in vivo
[9] = intravenous perfusion 15 minutes
[10] = intravenous perfusion 30 minutes
[11] = intravenous perfusion 60 minutes
[12] = perfused intravenously 2.5 mls per kg b.w. per minute
[13] = Cavia porcellus, read-out: Percentage of relaxation of the isolated Guinea-pig trachea
[14] = 30 mg/kg b.w. intraperitoneally
[15] = read-out: Thrombocyte aggregation % INHIBITION

SMILES: CC(=O)Oc1ccccc1C(=O)O [Aspirin, aspirin, reference compound]
Exudate (rats [1]; 100 mgs/kg intraperitoneal): 1.30 mls. | Inhibition (rats [1]; 100 mgs/kg intraperitoneal): 34%

MIC (Escherichia coli; Escherichia coli): 800 µg/mL (≈ 5.33 mM) | MIC (Staphylococcus aureus; Staphylococcus aureus): 200 µg/mL (≈ 1.33 mM)
SMILES: CC1(C)C2CC=C(C=O)C1C2 (centres unmarked) [Myrtenal, myrtenal]
antibacterial activity, grade (in words) (Escherichia coli): less intense on Gram-negative ones | inhibition of thrombocyte aggregation compared with Fraction 2 and sobrerol (in words) (thrombocyte aggregation): higher than those of Fraction 2 and sobrerol | inhibition at 160 µg/mL (thrombocyte aggregation): 0% | inhibition at 320 µg/mL (thrombocyte aggregation): 12% | inhibition at 640 µg/mL (thrombocyte aggregation): 20% | inhibition at 1280 µg/mL (thrombocyte aggregation): 75% | Percentage of inhibition of the histamine-induced bronchospasm (rabbits [2]; [9]): 25.4% | Percentage of inhibition of the histamine-induced bronchospasm (rabbits [2]; [10]): 20.4% | Percentage of inhibition of the histamine-induced bronchospasm (rabbits [2]; [11]): 28.8% | inhibition of histamine-induced bronchospasm compared with Fraction 2 and sobrerol (in words) (rabbits [2]; [12]): statistically higher than that of sobrerol and slightly lower than that of Fraction 2 | activation at 125 µg/mL [3, 13]: 7.5% | activation at 500 µg/mL [3, 13]: 47.5% | activation at 2000 µg/mL [3, 13]: 62.5% | relaxation of the smooth tracheal muscles, intensity compared with Fraction 2 and sobrerol (in words) [3]: statistically higher than that of the Fraction 2 and that of sobrerol | bronchodilating activity, grade (in words) [3]: fair bronchodilating activity | antibacterial activity, grade (in words) (Staphylococcus aureus): pronounced antibacterial activity on Gram-positive germs | antibacterial activity, grade (in words) (Staphylococcus aureus; listed as myrtenal): marked antibacterial action | antibacterial activity compared with Fraction 2 and sobrerol (in words) (Staphylococcus aureus): more active both than Fraction 2 and sobrerol | % inhibition of plantar oedema (rats [4]; [14]): 30% | anti-inflammatory action, grade (in words) (rats [4]): anti-inflammatory action of poor magnitude | inhibition of carrageenin paw oedema compared with Fraction 2 and sobrerol (in words) (rats [4]; rats, 30 mg/kg b.w. intraperitoneally): more intense than that of Fraction 2 and also than that of sobrerol | EC50 (red blood cells of rats; 80 to 500 micrograms/ml, fiducial limits 95%=112.3-189.9, read-out: Effective Concentration 50%, protection from haemolysis): 157 µg/mL (≈ 1.05 mM)

SMILES: C=C1C(O)CC2CC1C2(C)C (centres unmarked) [Pinocarveol, pinocarveol]
MIC (Escherichia coli; Escherichia coli): 800 µg/mL (≈ 5.25 mM) | antibacterial activity, grade (in words) (Escherichia coli): poor antibacterial activity | inhibition of thrombocyte aggregation compared with Fraction 2 and sobrerol (in words) (thrombocyte aggregation): exceeds that of the terpenes of the Fraction 2 and that of sobrerol | antiaggregative action, grade (in words) (thrombocyte aggregation; overall summary): conspicuous antiaggregative action | inhibition of histamine-induced bronchospasm compared with Fraction 2 and sobrerol (in words) (rabbits [2]; perfused intravenously 2.5 milligrams per kilogram and per minute): statistically higher than those of FRACTION 2 and of sobrerol | LD50 [5]: 140 mg/kg | relaxation of the smooth tracheal muscles, intensity compared with Fraction 2 and sobrerol (in words) [3]: statistically higher than that of sobrerol and which can be compared to that of Fraction 2 | bronchodilating activity, grade (in words) [3]: fair bronchodilating action; also recorded: poor bronchodilating action | antibacterial activity, grade (in words) (Staphylococcus aureus): poor antibacterial activity; also recorded: poor antibacterial action | antibacterial activity compared with Fraction 2 and sobrerol (in words) (Staphylococcus aureus): more active than sobrerol and as active as Fraction 2 | MIC (Staphylococcus aureus; Staphylococcus aureus): 800 µg/mL (≈ 5.25 mM) | anti-inflammatory action, grade (in words) (rats [4]): pronounced anti-inflammatory action | inhibition of carrageenin paw oedema compared with Fraction 2 and sobrerol (in words) (rats [4]; rats, 30 mg/kg intravenously): more intense than those of Fraction 2 and of sobrerol | EC50 (red blood cells of rats; 20 to 200 micrograms/ml, fiducial limits 95%=111.5-153.04, read-out: Effective Concentration 50% (EC 50), protection from haemolysis): 132 µg/mL (≈ 0.869 mM) | antihaemolytic activity, grade (in words) (red blood cells of rats; overall summary): pronounced antihaemolytic activity

SMILES: CC1=CCC(C(C)(C)O)CC1O (centres unmarked) [Sobrerol, sobrerol, reference compound]
Minimum Inhibiting Concentration (MIC) (Escherichia coli; Escherichia coli): .infin. | inhibition at 1000 µg/mL (thrombocyte aggregation; [15]): 4% | inhibition at 1500 µg/mL (thrombocyte aggregation; [15]): 12% | inhibition at 2000 µg/mL (thrombocyte aggregation; [15]): 24% | inhibition at 4000 µg/mL (thrombocyte aggregation; [15]): 32% | Percentage of inhibition of the histamine-induced bronchospasm (rabbits [2]; [9]): 2.15% | Percentage of inhibition of the histamine-induced bronchospasm (rabbits [2]; [10]): 1.15% | Percentage of inhibition of the histamine-induced bronchospasm (rabbits [2]; [11]): 3.97% | percent relaxation of trachea at 125 µg/mL [3, 13]: 1.87% | percent relaxation of trachea at 500 µg/mL [3, 13]: 5.62% | percent relaxation of trachea at 2000 µg/mL [3, 13]: 20.8% | Minimum Inhibiting Concentration (MIC) (Staphylococcus aureus; Staphylococcus aureus): .infin. | % inhibition of plantar oedema (rats [4]; [14]): 11%

SMILES: CC1=CC(=O)[C@@H]2C[C@H]1C2(C)C [Verbenone, verbenone]
antiexudative activity compared with aspirin (in words) (rats [1]; 36 and 120 mg/kg b.w. intraperitoneally): intense antiexudative activity in the experimental, turpentine-induced pleuritis (Hurley, J. V. et al., J. Path., 91, 575,1966) to a degree which can be compared to that of aspirin | Exudate (rats [1]; 36 mgs/kg intraperitoneal): 1.23 mls. | Inhibition (rats [1]; 36 mgs/kg intraperitoneal): 37.6% | Exudate (rats [1]; 120 mgs/kg intraperitoneal): 0.97 mls. | Inhibition (rats [1]; 120 mgs/kg intraperitoneal): 50.1% | MIC (Escherichia coli; Escherichia coli): 800 µg/mL (≈ 5.33 mM) | antibacterial activity, grade (in words) (Escherichia coli): poor antibacterial activity | inhibition of thrombocyte aggregation compared with Fraction 2 and sobrerol (in words) (thrombocyte aggregation): higher than that of the terpenes of the Fraction 2 and of sobrerol | inhibition at 160 µg/mL (thrombocyte aggregation): 0% | inhibition at 320 µg/mL (thrombocyte aggregation): 6% | inhibition at 640 µg/mL (thrombocyte aggregation): 44% | inhibition at 1280 µg/mL (thrombocyte aggregation): 100% | Percentage reduction of the Lung Resistance (dogs; 0.6 mgs/kg b.w.): 7.175% | reduction of the lung resistances (in words) (dogs; 0.6 to 4.8 mgs/kg b.w.): pronounced reduction of the lung resistances | Percentage reduction of the Lung Resistance (dogs; 1.2 mgs/kg b.w.): 10.85% | Percentage reduction of the Lung Resistance (dogs; 2.4 mgs/kg b.w.): 22.225% | Percentage reduction of the Lung Resistance (dogs; 4.8 mgs/kg b.w.): 30.6% | Percentage of inhibition of the histamine-induced bronchospasm (rabbits [2]; [9]): 36.25% | Percentage of inhibition of the histamine-induced bronchospasm (rabbits [2]; [10]): 46.27% | Percentage of inhibition of the histamine-induced bronchospasm (rabbits [2]; [11]): 73.32% | inhibition of histamine-induced bronchospasm compared with Fraction 2 and sobrerol (in words) (rabbits [2]; [12]): statistically higher than that of the terpenes of the fraction 2 and also than that of sobrerol | activation at 125 µg/mL [3, 13]: 26.2% | activation at 500 µg/mL [3, 13]: 61.2% | activation at 2000 µg/mL [3, 13]: 71.4% | relaxation of the smooth tracheal muscles, intensity compared with Fraction 2 and sobrerol (in words) [3]: significantly higher than that of the terpenes of the fraction 2 and also than that of sobrerol | bronchodilating activity, grade (in words) [3]: pronounced bronchodilating action; also recorded: pronounced bronchodilating activity | Percentage of inhibition of the histaminic spasm due to relaxation of the smooth tracheal muscles ([6]; 5.10^-3 M): 96.8% | inhibition at 1000 µM ([6]; Cavia porcellus, 10^-3 M, read-out: Percentage of inhibition of the histaminic spasm due to relaxation of the smooth tracheal muscles): 29.2% | antibacterial activity, grade (in words) (Staphylococcus aureus): poor antibacterial activity | antibacterial activity compared with Fraction 2 and sobrerol (in words) (Staphylococcus aureus): as active as Fraction 2 and more active than sobrerol | MIC (Staphylococcus aureus; Staphylococcus aureus): 800 µg/mL (≈ 5.33 mM) | LD50 (in vivo; ip, female): 325 mg/kg | LD50 (in vivo; ip, male): 361 mg/kg | LD50 (in vivo; po, female): 1530 mg/kg | LD50 (in vivo; po, male): 1410 mg/kg | tolerability on the basis of acute toxicity data (mice; mice and rabbits, i.p. and p.o.): well tolerated | Gleason classification (mice; i.p.): Poor | Gleason classification (mice; p.o.): Slight | LD50 ([7]; ip, female): 232 mg/kg | LD50 ([7]; ip, male): 310 mg/kg | LD50 ([7]; po, female): 655 mg/kg | LD50 ([7]; po, male): 790 mg/kg | Gleason classification (rabbits [8]; i.p.): Poor | Gleason classification (rabbits [8]; p.o.): Poor | % inhibition of plantar oedema (rats [4]; [14]): 29% | inhibition of carrageenin paw oedema compared with Fraction 2 and sobrerol (in words) (rats [4]; normal and suprarenalectomized rats, 30 mg/kg b.w. intraperitoneally): significantly improved over those of the fraction 2 and of sobrerol | EC50 (red blood cells of rats; fiducial limits 95%: 518.0-760.11, read-out: effective concentration 50% (EC 50), protection from haemolysis): 640 µg/mL (≈ 4.26 mM)
